Biological target: T1, human β3 adrenergic receptor (Homo sapiens, UniProt P13945)
T1 construct: expressed in transfected cells; host or cells: DXB-11 Chinese hamster ovary (CHO) cell line, stably transfected (phd expression vector)
Experiment: whole cell receptor coupled c-AMP assay, human β3 receptor in CHO cells (EC50, Emax relative to isoproterenol)
Format: cell-based
How it was run: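 Stably transfected DXB-11 CHO cells (20,000/well) were exposed to compound for 20 min at 37 °C in HBSS/HEPES buffer with 1 mM IBMX, pH 7.4. cAMP was measured by SPA. EC50 came from a four-parameter logistic fit, and Emax is the maximal response as a percentage of isoproterenol's.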

[1] = Emax ± standard error of the mean, average of at least 3 runs except where n = 1, compound tested in the isolated form listed
[2] = % intrinsic activity relative to isoproterenol maximal response, average of at least 3 runs, c-AMP in transfected CHO cells

T1 sequence (P13945 whole entry): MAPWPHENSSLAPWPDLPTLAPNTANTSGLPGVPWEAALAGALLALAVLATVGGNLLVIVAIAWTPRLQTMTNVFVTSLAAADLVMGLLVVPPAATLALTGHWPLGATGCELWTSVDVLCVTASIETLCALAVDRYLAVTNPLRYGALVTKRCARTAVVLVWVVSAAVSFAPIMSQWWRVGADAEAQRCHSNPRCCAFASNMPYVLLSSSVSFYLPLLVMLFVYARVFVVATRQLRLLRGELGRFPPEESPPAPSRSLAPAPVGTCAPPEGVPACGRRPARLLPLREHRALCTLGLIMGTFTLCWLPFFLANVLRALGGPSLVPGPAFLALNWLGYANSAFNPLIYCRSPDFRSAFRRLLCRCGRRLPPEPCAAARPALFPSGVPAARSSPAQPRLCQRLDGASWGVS

Row | SMILES | Emax (%) ± SEM [1] | Emax (%) ± SEM [2]
1 | CC(C)(Cc1ccc(Oc2cccnc2C#N)cc1)NC[C@H](O)COc1ccccc1-c1nccs1.O=C(O)C(F)(F)F [Example 144] | 55.9 ± 1.1% | –
2 | CC(C)(Cc1ccc(Oc2ncccc2C(N)=O)cc1)NC[C@H](O)COc1ccccc1-c1nccs1.Cl [Example 71] | 65.6 ± 1.3% | –
3 | CC(C)(Cc1ccc(Oc2ncccc2C(N)=O)cc1)NC[C@H](O)COc1ccccc1N1CCCC1=O [Example 77] | 22.4 ± 4.6% | –
4 | CC(C)(Cc1ccc(Oc2ccc(C(N)=O)cn2)cc1)NC[C@H](O)COc1ccccc1-c1cccs1 [Example 16] | 67.6 ± 4.7% | –
5 | CC(C)(Cc1ccc(Oc2ccc(C(N)=O)cn2)cc1)NC[C@H](O)COc1ccccc1N1CCNCC1.Cl.Cl.Cl [Example 25] | 13.7 ± 3.5% | –
6 | CC(C)(Cc1ccc(Oc2ccc(C(N)=O)cn2)cc1)NC[C@H](O)COc1ccccc1-c1ccncn1 [Example 75] | 40.3 ± 3.7% | –
7 | CCOC(=O)c1cccnc1Oc1ccc(CC(C)(C)NC[C@H](O)COc2ccccc2-c2ccnn2C)cc1 [Example 105] | <10% | –
8 | CC(C)(Cc1ccc(Oc2ncccc2C(N)=O)cc1)NC[C@H](O)COc1ccccc1-c1ccno1 [Example 72] | 67.6 ± 7.1% | –
9 | CC(C)(Cc1ccc(Oc2ncccc2C#N)cc1)NC[C@H](O)COc1ccc(F)cc1-c1cccs1.O=C(O)C(=O)O [Example 63] | 52.6 ± 2.5% | –
10 | CC(C)(Cc1ccc(Oc2ccc(C(N)=O)cn2)cc1)NC[C@H](O)COc1ccccc1-c1nncs1.O=C(O)C(=O)O [Example 42] | 43.3 ± 2.7% | –
11 | CC(C)(Cc1ccc(Oc2ccc(C(N)=O)cn2)cc1)NC[C@H](O)COc1ccccc1-n1cccc1.Cl [Example 29] | 48.4 ± 5.9% | –
12 | CC(C)(Cc1ccc(Oc2ccc(C(N)=O)cn2)cc1)NC[C@H](O)COc1ccccc1-n1cccn1.Cl [Example 47] | 35.5 ± 5.5% | –
13 | CC(C)(Cc1ccc(Oc2cccnc2C#N)cc1)NC[C@H](O)COc1ccccc1-c1ccns1.O=C(O)C(F)(F)F [Example 147] | 58.9 ± 3.6% | –
14 | CC(C)(Cc1ccc(Oc2ccc(C(N)=O)cn2)cc1)NC[C@H](O)COc1ccccc1C1=CC(=O)OC1.Cl [Example 41] | 33.5 ± 4.2% | –
15 | CC(C)(Cc1ccc(Oc2ncccc2C(N)=O)cc1)NC[C@H](O)COc1ccccc1-c1csnn1.O=C(O)C(=O)O [Example 98] | 39.2 ± 4.0% | –
16 | CC(C)(Cc1ccc(Oc2ncccc2C#N)cc1)NC[C@H](O)COc1ccccc1-c1ccno1.Cl [Example 54] | 66.8 ± 6.8% | –
17 | CC(C)(Cc1ccc(Oc2ccc(C#N)nc2)cc1)NC[C@H](O)COc1ccccc1-c1nccs1.O=C(O)C(F)(F)F [Example 145] | 44.6 ± 6.2% | –
18 | CC(C)(Cc1ccc(Oc2ncccc2C(N)=O)cc1)NC[C@H](O)COc1ccccc1-c1ccon1.Cl [Example 89] | 71.8 ± 2.5% | –
19 | CC(C)(Cc1ccc(Oc2ncccn2)cc1)NC[C@H](O)COc1ccccc1-c1ccno1.O=C(O)C(F)(F)F [Example 152] | 45.3 ± 4.2% | –
20 | CC(C)(Cc1ccc(Oc2ncccc2C#N)cc1)NC[C@H](O)COc1cccc(F)c1-c1cccs1.O=C(O)C(F)(F)F [Example 64] | 30.5 ± 6.8% | –
21 | CC(C)(Cc1ccc(Oc2ccc(C(N)=O)cn2)cc1)NC[C@H](O)COc1ccccc1-c1nc2ccccc2o1 [Example 26] | 41.4 ± 6.6% | –
22 | CC(C)(Cc1ccc(Oc2ncccn2)cc1)NC[C@H](O)COc1ccccc1-c1nccs1.O=C(O)C(F)(F)F [Example 151] | 73.1 ± 3.8% | –
23 | CC(C)(Cc1ccc(Oc2ccc(C(N)=O)cn2)cc1)NC[C@H](O)COc1ccccc1N1CCOCC1.Cl.Cl [Example 23] | 29.9 ± 3.2% | –
24 | CC(C)(Cc1ccc(Oc2ccc(C#N)cn2)cc1)NC[C@H](O)COc1ccccc1-c1cnco1.Cl [Example 13] | 54.8 ± 1.7% | –
25 | CC(C)(Cc1ccc(Oc2ccc(C#N)cn2)cc1)NC[C@H](O)COc1ccccc1-c1cccs1 [Example 5] | 66.1 ± 4.8% | –
26 | CC(C)(Cc1ccc(Oc2ccc(C(N)=O)cn2)cc1)NC[C@H](O)COc1ccccc1N1CCCCC1.Cl.Cl [Example 24] | 17.3 ± 3.2% | –
27 | Cn1nccc1-c1ccccc1OC[C@@H](O)CNC(C)(C)Cc1ccc(Oc2ccc(C#N)cn2)cc1 [Example 3] | <10% | –
28 | CC(C)(Cc1ccc(Oc2ccc(C(N)=O)cn2)cc1)NC[C@H](O)COc1ccccc1-c1cnco1.Cl [Example 46] | 64.7 ± 1.3% | –
29 | CC(C)(Cc1ccc(Oc2ncccc2C(N)=O)cc1)NC[C@H](O)COc1ccccc1-c1ccncn1 [Example 76] | 48.8 ± 5.5% | –

Other lines, results leading:

Row | Emax (%) ± SEM [1] | Emax (%) ± SEM [2] | SMILES
30 | 50.6 ± 1.8% | – | CC(C)(Cc1ccc(Oc2cnccn2)cc1)NC[C@H](O)COc1ccccc1-c1cscn1.Cl [Example 256]
31 | 51.3 ± 10.8% | – | CC(C)(Cc1ccc(Oc2ccccc2C(N)=O)cc1)NC[C@H](O)COc1ccc(F)cc1-c1cccs1.O=C(O)C(F)(F)F [Example 227]
32 | 44.6 ± 4.3% | – | CC(C)(Cc1ccc(Oc2ccc(C#N)cc2Cl)cc1)NC[C@H](O)COc1ccccc1-c1ccno1.O=C(O)C(F)(F)F [Example 163]
33 | – | 20.3 ± 2.0% | CC(C)(Cc1ccc(Oc2ccc(C(N)=O)cn2)cc1)NC[C@H](O)COc1ccccc1-c1cccnc1 [Example 389]
34 | – | 71.2 ± 7.9% | CC(=O)c1ccc(-c2ccccc2OC[C@@H](O)CNC(C)(C)Cc2ccc(Oc3cccnc3C#N)cc2)s1.Cl [Example 424]
35 | 54.1 ± 3.9% | – | CC(C)(Cc1ccc(Oc2ccc(C(N)=O)s2)cc1)NC[C@H](O)COc1ccccc1-c1cscn1.Cl [Example 259]
36 | 55.9 ± 4.0% | – | CC(C)(Cc1ccc(Oc2cccnc2C(N)=O)cc1)NC[C@H](O)COc1ccccc1-c1cscn1.Cl [Example 242]
37 | 73.3 ± 6.6% | – | CC(C)(Cc1ccc(Oc2nc(Cl)c(Cl)cc2Cl)cc1)NC[C@H](O)COc1ccccc1-c1nccs1.O=C(O)C(F)(F)F [Example 157]
38 | 35.7 ± 2.8% | – | CC(C)(Cc1ccc(Oc2ccc(C(N)=O)cn2)cc1)NC[C@H](O)COc1ccccc1-n1ccc(C#N)c1.Cl [Example 272]
39 | 41.3 ± 4.2% | – | CC(C)(Cc1ccc(Oc2ccc(C(N)=O)cc2)cc1)NC[C@H](O)COc1ccccc1-n1cccc1.Cl [Example 269]
40 | 56.1 ± 4.5% | – | CC(C)(Cc1ccc(Oc2ccc(Cl)cn2)cc1)NC[C@H](O)COc1ccccc1-c1nccs1.O=C(O)C(F)(F)F [Example 168]
41 | 49.9 ± 3.4% | – | CC(C)(Cc1ccc(Oc2ncccn2)cc1)NC[C@H](O)COc1ccccc1-c1cscn1.Cl [Example 257]
42 | – | 65.7 ± 11.4% | CC(C)(Cc1ccc(Oc2ncccc2C#N)cc1)NC[C@H](O)COc1ccccc1-c1ccc(Cl)s1.O=C(O)C(F)(F)F [Example 414]
43 | 31.6 ± 3.1% | – | CC(C)(Cc1ccc(Oc2ccc(S(C)(=O)=O)cc2F)cc1)NC[C@H](O)COc1ccccc1-c1cscn1.Cl [Example 250]
44 | – | 55.8 ± 7.1% | CC(C)(Cc1ccc(Oc2ccc(C#N)cn2)cc1)NC[C@H](O)COc1ccccc1-c1ccc(Cl)s1.O=C(O)C(F)(F)F [Example 406]
45 | 57.0 ± 7.6% | – | CC(C)(Cc1ccc(Oc2cccc(Cl)n2)cc1)NC[C@H](O)COc1ccccc1-c1nccs1.O=C(O)C(F)(F)F [Example 176]
46 | 22.7 ± 1.7% | – | CC(C)(Cc1ccccc1-c1ccc(C#N)cc1)NC[C@H](O)COc1ccccc1-c1ccno1.Cl [Example 290]
